Measured values from PubChem BioAssay (NCI).
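1) Cells in 96-well plates. 2) Compound, 48 h, 5 concentrations. 3) Linear interpolation between surrounding doses. 4) Unreached endpoint = highest concentration. The concentration for full growth arrest is given as TGI.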

Tests used:
Test in all cases: NCI tumour cell line growth inhibition, 48 h
UO-31 renal = system: UO-31 renal
LOX IMVI melanoma = system: LOX IMVI melanoma
OVCAR-5 ovarian = system: OVCAR-5 ovarian
KM12 colon = system: KM12 colon
UACC-257 melanoma = system: UACC-257 melanoma
EKVX NSCLC = system: EKVX NSCLC
NCI-H460 lung = system: NCI-H460 lung
XF 498 CNS = system: XF 498 CNS
COLO 205 colon = system: COLO 205 colon
SF-295 CNS = system: SF-295 CNS
OVCAR-8 ovarian = system: OVCAR-8 ovarian
HCT-116 colon = system: HCT-116 colon
NCI-H226 lung = system: NCI-H226 lung
HL-60(TB) leukemia = system: HL-60(TB) leukemia
DLD-1 colon = system: DLD-1 colon
P388 leukemia = system: P388 leukemia
MCF7 breast = system: MCF7 breast
SNB-19 CNS = system: SNB-19 CNS
KM20L2 colon = system: KM20L2 colon
MALME-3M melanoma = system: MALME-3M melanoma
A549 NSCLC = system: A549 NSCLC
SN12K1 renal = system: SN12K1 renal
SN12C renal = system: SN12C renal
IGROV1 ovarian = system: IGROV1 ovarian
U251 CNS = system: U251 CNS
HOP-62 NSCLC = system: HOP-62 NSCLC
RXF 393 renal = system: RXF 393 renal
SK-MEL-28 melanoma = system: SK-MEL-28 melanoma
NCI/ADR-RES ovarian = system: NCI/ADR-RES ovarian
SK-MEL-2 melanoma = system: SK-MEL-2 melanoma
UACC-62 melanoma = system: UACC-62 melanoma
K-562 leukemia = system: K-562 leukemia
HT29 colon = system: HT29 colon
SK-OV-3 ovarian = system: SK-OV-3 ovarian
SF-539 CNS = system: SF-539 CNS
HCT-15 colon = system: HCT-15 colon
DMS 114 small cell lung = system: DMS 114 small cell lung
SNB-78 CNS = system: SNB-78 CNS
HOP-92 NSCLC = system: HOP-92 NSCLC
DMS 273 small cell lung = system: DMS 273 small cell lung
SNB-75 CNS = system: SNB-75 CNS
SF-268 CNS = system: SF-268 CNS
HOP-18 NSCLC = system: HOP-18 NSCLC
SK-MEL-5 melanoma = system: SK-MEL-5 melanoma
RPMI-8226 leukemia = system: RPMI-8226 leukemia
SW-620 colon = system: SW-620 colon
CCRF-CEM leukemia = system: CCRF-CEM leukemia
HCC-2998 colon = system: HCC-2998 colon
OVCAR-4 ovarian = system: OVCAR-4 ovarian
M19-MEL melanoma = system: M19-MEL melanoma
OVCAR-3 ovarian = system: OVCAR-3 ovarian
P388/ADR leukemia = system: P388/ADR leukemia
NCI-H23 lung = system: NCI-H23 lung
A498 renal = system: A498 renal
CAKI-1 renal = system: CAKI-1 renal
NCI-H522 lung = system: NCI-H522 lung
MOLT-4 leukemia = system: MOLT-4 leukemia

**Q.** `Cc1ccc2cc3cccc(C(=O)NCCN(C)C)c3nc2c1` was tested. Which TGI (UO-31 renal) did it give?
**A.** 3.19 µM

**Q.** What about the TGI (LOX IMVI melanoma) of the same compound?
**A.** 6.08 µM

**Q.** And the TGI (OVCAR-5 ovarian)?
**A.** 4.28 µM

**Q.** And the TGI (KM12 colon)?
**A.** 10 µM

**Q.** What about the TGI (UACC-257 melanoma) of the same compound?
**A.** 2.74 µM

**Q.** What about the TGI (EKVX NSCLC) of the same compound?
**A.** 3.44 µM

**Q.** And the TGI (NCI-H460 lung)?
**A.** 1.94 µM

**Q.** And the TGI (XF 498 CNS)?
**A.** 3.68 µM

**Q.** And the TGI (COLO 205 colon)?
**A.** 2.51 µM

**Q.** And the TGI (SF-295 CNS)?
**A.** 3.91 µM

**Q.** And the TGI (OVCAR-8 ovarian)?
**A.** 6.45 µM

**Q.** And the TGI (HCT-116 colon)?
**A.** 6.23 µM

**Q.** What about the TGI (NCI-H226 lung) of the same compound?
**A.** 4.16 µM

**Q.** What about the TGI (HL-60(TB) leukemia) of the same compound?
**A.** 2.49 µM

**Q.** What about the TGI (DLD-1 colon) of the same compound?
**A.** 8.36 µM

**Q.** What about the TGI (P388 leukemia) of the same compound?
**A.** 1.26 µM

**Q.** What about the TGI (MCF7 breast) of the same compound?
**A.** 5.19 µM

**Q.** What about the TGI (SNB-19 CNS) of the same compound?
**A.** 8.1 µM

**Q.** And the TGI (KM20L2 colon)?
**A.** 3.08 µM

**Q.** And the TGI (MALME-3M melanoma)?
**A.** 2.49 µM

**Q.** What about the TGI (A549 NSCLC) of the same compound?
**A.** 5.05 µM

**Q.** And the TGI (SN12K1 renal)?
**A.** 5.59 µM

**Q.** And the TGI (SN12C renal)?
**A.** 6.39 µM

**Q.** What about the TGI (IGROV1 ovarian) of the same compound?
**A.** 9.09 µM

**Q.** And the TGI (U251 CNS)?
**A.** 9.2 µM

**Q.** And the TGI (HOP-62 NSCLC)?
**A.** 6.17 µM

**Q.** What about the TGI (RXF 393 renal) of the same compound?
**A.** 2.73 µM

**Q.** What about the TGI (SK-MEL-28 melanoma) of the same compound?
**A.** 3.39 µM

**Q.** And the TGI (NCI/ADR-RES ovarian)?
**A.** 5.07 µM

**Q.** And the TGI (SK-MEL-2 melanoma)?
**A.** 3.55 µM

**Q.** And the TGI (UACC-62 melanoma)?
**A.** 3.16 µM

**Q.** And the TGI (K-562 leukemia)?
**A.** > 31.3 µM

**Q.** And the TGI (HT29 colon)?
**A.** 2.67 µM

**Q.** And the TGI (SK-OV-3 ovarian)?
**A.** 7.87 µM

**Q.** And the TGI (SF-539 CNS)?
**A.** 3.57 µM

**Q.** And the TGI (HCT-15 colon)?
**A.** 9.17 µM

**Q.** And the TGI (DMS 114 small cell lung)?
**A.** 2.58 µM

**Q.** And the TGI (SNB-78 CNS)?
**A.** 7.78 µM

**Q.** What about the TGI (HOP-92 NSCLC) of the same compound?
**A.** 2.75 µM

**Q.** And the TGI (DMS 273 small cell lung)?
**A.** 2.8 µM

**Q.** What about the TGI (SNB-75 CNS) of the same compound?
**A.** 4.75 µM

**Q.** What about the TGI (SF-268 CNS) of the same compound?
**A.** 4.03 µM

**Q.** What about the TGI (HOP-18 NSCLC) of the same compound?
**A.** 7.36 µM

**Q.** What about the TGI (SK-MEL-5 melanoma) of the same compound?
**A.** 2.66 µM

**Q.** What about the TGI (RPMI-8226 leukemia) of the same compound?
**A.** 7.42 µM

**Q.** And the TGI (SW-620 colon)?
**A.** 6.46 µM

**Q.** What about the TGI (CCRF-CEM leukemia) of the same compound?
**A.** 5.54 µM

**Q.** What about the TGI (HCC-2998 colon) of the same compound?
**A.** 3.04 µM

**Q.** What about the TGI (OVCAR-4 ovarian) of the same compound?
**A.** 6.11 µM

**Q.** What about the TGI (M19-MEL melanoma) of the same compound?
**A.** 3.01 µM

**Q.** What about the TGI (OVCAR-3 ovarian) of the same compound?
**A.** 5.67 µM

**Q.** And the TGI (P388/ADR leukemia)?
**A.** 1.46 µM

**Q.** And the TGI (NCI-H23 lung)?
**A.** 3.4 µM

**Q.** And the TGI (A498 renal)?
**A.** 2.37 µM

**Q.** And the TGI (CAKI-1 renal)?
**A.** 10.8 µM

**Q.** Which TGI (UO-31 renal) does the source give for `CCN(CC)c1c(C)c(C(=O)OC)nn1-c1ccccc1` here?
**A.** > 100 µM

**Q.** And the TGI (LOX IMVI melanoma)?
**A.** > 100 µM

**Q.** And the TGI (NCI-H522 lung)?
**A.** > 100 µM

**Q.** What about the TGI (OVCAR-5 ovarian) of the same compound?
**A.** > 100 µM

**Q.** And the TGI (KM12 colon)?
**A.** > 100 µM

**Q.** And the TGI (UACC-257 melanoma)?
**A.** > 100 µM

**Q.** What about the TGI (EKVX NSCLC) of the same compound?
**A.** > 100 µM

**Q.** What about the TGI (NCI-H460 lung) of the same compound?
**A.** > 100 µM

**Q.** What about the TGI (XF 498 CNS) of the same compound?
**A.** > 100 µM

**Q.** And the TGI (COLO 205 colon)?
**A.** > 100 µM

**Q.** And the TGI (SF-295 CNS)?
**A.** > 100 µM

**Q.** What about the TGI (OVCAR-8 ovarian) of the same compound?
**A.** > 100 µM

**Q.** What about the TGI (HCT-116 colon) of the same compound?
**A.** > 100 µM

**Q.** What about the TGI (NCI-H226 lung) of the same compound?
**A.** > 100 µM

**Q.** What about the TGI (HL-60(TB) leukemia) of the same compound?
**A.** > 100 µM

**Q.** What about the TGI (DLD-1 colon) of the same compound?
**A.** > 100 µM

**Q.** What about the TGI (P388 leukemia) of the same compound?
**A.** > 100 µM

**Q.** What about the TGI (MCF7 breast) of the same compound?
**A.** > 100 µM

**Q.** What about the TGI (SNB-19 CNS) of the same compound?
**A.** > 100 µM

**Q.** What about the TGI (KM20L2 colon) of the same compound?
**A.** > 100 µM

**Q.** And the TGI (MALME-3M melanoma)?
**A.** > 100 µM

**Q.** What about the TGI (A549 NSCLC) of the same compound?
**A.** > 100 µM

**Q.** And the TGI (SN12K1 renal)?
**A.** > 100 µM

**Q.** And the TGI (SN12C renal)?
**A.** > 100 µM

**Q.** What about the TGI (IGROV1 ovarian) of the same compound?
**A.** > 100 µM

**Q.** What about the TGI (U251 CNS) of the same compound?
**A.** > 100 µM

**Q.** And the TGI (HOP-62 NSCLC)?
**A.** > 100 µM

**Q.** And the TGI (RXF 393 renal)?
**A.** > 100 µM

**Q.** And the TGI (SK-MEL-28 melanoma)?
**A.** > 100 µM

**Q.** And the TGI (NCI/ADR-RES ovarian)?
**A.** > 100 µM

**Q.** And the TGI (SK-MEL-2 melanoma)?
**A.** > 100 µM

**Q.** And the TGI (UACC-62 melanoma)?
**A.** > 100 µM

**Q.** And the TGI (K-562 leukemia)?
**A.** > 100 µM

**Q.** What about the TGI (HT29 colon) of the same compound?
**A.** > 100 µM

**Q.** And the TGI (SK-OV-3 ovarian)?
**A.** > 100 µM

**Q.** And the TGI (SF-539 CNS)?
**A.** > 100 µM

**Q.** And the TGI (HCT-15 colon)?
**A.** > 100 µM

**Q.** What about the TGI (DMS 114 small cell lung) of the same compound?
**A.** > 100 µM

**Q.** What about the TGI (SNB-78 CNS) of the same compound?
**A.** > 100 µM

**Q.** And the TGI (HOP-92 NSCLC)?
**A.** > 100 µM

**Q.** And the TGI (DMS 273 small cell lung)?
**A.** > 100 µM

**Q.** What about the TGI (SNB-75 CNS) of the same compound?
**A.** > 100 µM

**Q.** And the TGI (SF-268 CNS)?
**A.** > 100 µM

**Q.** And the TGI (HOP-18 NSCLC)?
**A.** > 100 µM

**Q.** And the TGI (SK-MEL-5 melanoma)?
**A.** > 100 µM

**Q.** What about the TGI (RPMI-8226 leukemia) of the same compound?
**A.** > 100 µM

**Q.** What about the TGI (SW-620 colon) of the same compound?
**A.** > 100 µM

**Q.** What about the TGI (CCRF-CEM leukemia) of the same compound?
**A.** > 100 µM

**Q.** What about the TGI (HCC-2998 colon) of the same compound?
**A.** > 100 µM

**Q.** What about the TGI (OVCAR-4 ovarian) of the same compound?
**A.** > 100 µM

**Q.** And the TGI (MOLT-4 leukemia)?
**A.** > 100 µM

**Q.** What about the TGI (M19-MEL melanoma) of the same compound?
**A.** > 100 µM

**Q.** And the TGI (OVCAR-3 ovarian)?
**A.** > 100 µM

**Q.** What about the TGI (P388/ADR leukemia) of the same compound?
**A.** > 100 µM

**Q.** And the TGI (NCI-H23 lung)?
**A.** > 100 µM

**Q.** And the TGI (A498 renal)?
**A.** > 100 µM

**Q.** And the TGI (CAKI-1 renal)?
**A.** > 86.3 µM
